Test results: the supplement of paper PMC8967900

Tests used:
Assay in all cases: selective drug sensitivity score (sDSS, relative to normal bone marrow) (sDSS (score)); higher = more potent and effective on the cell line relative to normal bone marrow cells
Conditions in all cases: 72 h
NALL-1 = system: NALL-1
CCRF-CEM = system: CCRF-CEM
NALM-6 = system: NALM-6
P30-OHKUBO = system: P30-OHKUBO
TMD5 = system: TMD5
ALL-PO = system: ALL-PO
HPB-ALL = system: HPB-ALL
MN-60 = system: MN-60
DND-41 = system: DND-41
MOLT-14 = system: MOLT-14
KASUMI-10 = system: KASUMI-10
KOPN-8 = system: KOPN-8
RPMI-8402 = system: RPMI-8402
HAL-01 = system: HAL-01
KARPAS-45 = system: KARPAS-45
COG-LL-332h = system: COG-LL-332h
MOLT-4 = system: MOLT-4
REH = system: REH
LC4-1 = system: LC4-1
MHH-CALL-4 = system: MHH-CALL-4
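Note: ALL cell lines in 384-well plates, five doses spanning 10,000-fold, each plate scaled between vehicle and 100 µmol/L benzalkonium chloride controls, sDSS an adapted area-under-curve metric.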

Row | SMILES | selective drug sensitivity score (NALL-1) | selective drug sensitivity score (CCRF-CEM) | selective drug sensitivity score (NALM-6) | selective drug sensitivity score (P30-OHKUBO) | selective drug sensitivity score (TMD5) | selective drug sensitivity score (ALL-PO) | selective drug sensitivity score (HPB-ALL) | selective drug sensitivity score (MN-60) | selective drug sensitivity score (DND-41) | selective drug sensitivity score (MOLT-14) | selective drug sensitivity score (KASUMI-10) | selective drug sensitivity score (KOPN-8) | selective drug sensitivity score (RPMI-8402) | selective drug sensitivity score (HAL-01) | selective drug sensitivity score (KARPAS-45) | selective drug sensitivity score (COG-LL-332h) | selective drug sensitivity score (MOLT-4) | selective drug sensitivity score (REH) | selective drug sensitivity score (LC4-1) | selective drug sensitivity score (MHH-CALL-4)
1 | CCS(=O)(=O)c1cccc(-c2cc(C(=O)NC3CCN(C)CC3)c(C)c3[nH]c4ncc(C)cc4c23)c1 [TAK-901] (top concentration 1000 nM) | 11.8 | 11.2 | 9.66 | 12.8 | 7.16 | 7.76 | 5.36 | -2.64 | 0.66 | 7.26 | 9.76 | 10.8 | 6.56 | -2.74 | 8.86 | 11.3 | 10.6 | 11.1 | 10.8 | 3.16
2 | Cc1cc(Nc2cc(N3CCN(C)CC3)nc(/C=C/c3ccccc3)n2)n[nH]1 [ENMD-2076] (top concentration 10000 nM) | 5.84 | 5.04 | 5.44 | 8.94 | -0.26 | 10.3 | 4.44 | -1.46 | -0.46 | 6.64 | 9.14 | 8.34 | 1.44 | 5.54 | 5.14 | 4.34 | 5.74 | 4.14 | 7.64 | 0.34
3 | Cc1ccc(C(=O)Nc2ccc(CN3CCN(C)CC3)c(C(F)(F)F)c2)cc1C#Cc1cnc2cccnn12 [Ponatinib] (top concentration 1000 nM) | -3.08 | 1.82 | 0.82 | 9.02 | 19 | 14.1 | -2.18 | -0.58 | 1.42 | 7.42 | 16 | 27.1 | 2.72 | 8.42 | 5.02 | 17.6 | 4.32 | 2.62 | 0.32 | 4.72
4 | CS(=O)(=O)c1ccc(-c2cnc(N)c(C(=O)Nc3ccccc3)n2)cc1 [VE-821] (top concentration 10000 nM) | -0.66 | -0.66 | -0.66 | -0.16 | -0.66 | 2.64 | 5.04 | -0.66 | -0.66 | 0.74 | 2.54 | 8.74 | 5.54 | 4.54 | 1.54 | 4.74 | 3.94 | 7.14 | 4.64 | -0.66
5 | Cc1cccc(-c2[nH]c(CNc3ccccc3F)nc2-c2ccc3ncnn3c2)n1 [Vactosertib (TEW-7197)] (top concentration 2500 nM) | -0.4 | -0.5 | -0.5 | -0.4 | -0.5 | -0.5 | -0.5 | -0.1 | 3 | 0.8 | -0.5 | -0.5 | -0.5 | 0 | -0.5 | -0.2 | 2.3 | -0.5 | -0.1 | 7.2
6 | Cc1cnc(Nc2ccc(OCCN3CCCC3)cc2)nc1Nc1cccc(S(=O)(=O)NC(C)(C)C)c1 [Fedratinib] (top concentration 10000 nM) | -1.56 | -1.76 | -1.26 | -2.16 | -2.26 | 3.24 | 0.14 | -4.06 | 3.94 | -0.06 | 4.94 | -0.76 | -2.16 | -1.96 | 0.04 | -2.26 | -2.86 | -2.76 | -0.36 | -1.36
7 | COc1cccc2c1c(O)c(C(=O)N(C)c1ccc(C(F)(F)F)cc1)c(=O)n2C [Tasquinimod] (top concentration 10000 nM) | -0.42 | -0.42 | -0.42 | -0.42 | -0.42 | -0.32 | -0.42 | -0.22 | 1.08 | -0.42 | -0.42 | -0.42 | -0.42 | -0.42 | -0.22 | 0.48 | -0.42 | -0.42 | -0.42 | 0.68
8 | Cc1nn(C)c(COc2ccc(N3CCN(S(=O)(=O)N(C)C)CC3)cc2)c1-c1cccc2c(CCCOc3cccc4ccccc34)c(C(=O)O)n(CCN3CCOCC3)c12 (top concentration 50000 nM) | 5.46 | 9.06 | 4.26 | 4.46 | 4.26 | 8.86 | 2.16 | 3.16 | 4.56 | 6.96 | 3.86 | 10.1 | 4.86 | 2.46 | 8.16 | 4.16 | 6.56 | 8.46 | 6.56 | 5.06
9 | Cc1cc([C@@H](C)Nc2ccccc2C(=O)O)c2nc(N3CCOCC3)cc(=O)n2c1 [AZD-6482] (top concentration 2500 nM) | 7.42 | 2.02 | 5.62 | 9.12 | -0.28 | 3.92 | 2.92 | 0.02 | 2.32 | -0.28 | -0.28 | 8.22 | 2.32 | 6.62 | 1.82 | 1.32 | 1.52 | 7.82 | 3.42 | 1.92
10 | COc1cc2ncnc(Oc3cccc(NC(=O)Nc4cc(C(C)(C)C(F)(F)F)on4)c3)c2cc1OC (top concentration 10000 nM) | 0.3 | 0.1 | 0 | 3.2 | 15.7 | 11.5 | 0 | 0 | 0 | 0.8 | 10.8 | 16.7 | 4.7 | 3.4 | 3.2 | 18.4 | 0 | 5 | 1.1 | 3.4
11 | NC(=O)c1cccc2cn(-c3ccc(C4CCCNC4)cc3)nc12 (stereo not given) [Niraparib] (top concentration 10000 nM) | 4.08 | 4.68 | 1.18 | 5.98 | -1.72 | 6.08 | -3.32 | -3.02 | 2.78 | 12.8 | 1.58 | 16.1 | 1.98 | 3.18 | -0.62 | 3.88 | 3.58 | -0.02 | 3.38 | 4.58
12 | CC(=O)OC[C@H]1O[C@@H]([S-])[C@H](OC(C)=O)[C@@H](OC(C)=O)[C@@H]1OC(C)=O.CCP(CC)CC.[Au+] [Auranofin] (top concentration 2500 nM) | 3.14 | 2.74 | 5.34 | 4.84 | 3.84 | 0.34 | 5.64 | -2.76 | 1.94 | 0.04 | 5.54 | 11.6 | -2.36 | 6.44 | 0.94 | 1.44 | -0.46 | 6.04 | 6.34 | 7.34
13 | CCC/C=C/C=C/C(=O)O[C@H]1/C(=C/C(=O)OC)C[C@H]2C[C@H]([C@@H](C)O)OC(=O)C[C@H](O)C[C@@H]3C[C@H](OC(C)=O)C(C)(C)[C@](O)(C[C@@H]4C/C(=C/C(=O)OC)C[C@H](/C=C/C(C)(C)[C@]1(O)O2)O4)O3 [Bryostatin_1] (top concentration 100 nM) | -7.12 | -7.12 | -7.12 | 20.2 | -7.12 | -7.12 | -7.12 | -7.12 | 0.88 | -7.12 | 6.78 | 26.9 | -4.52 | 0.08 | -7.12 | -7.12 | -7.12 | -7.12 | 30.6 | -7.12
14 | COc1c(OCCCN2CCOCC2)ccc2c1N=C(NC(=O)c1cnc(N)nc1)N1CCN=C21 [Copanlisib] (top concentration 1000 nM) | -0.62 | 10.2 | 8.18 | 10.1 | -5.32 | 8.28 | 0.48 | 0.48 | -2.72 | -3.92 | -1.32 | 4.98 | 2.58 | 12.1 | 3.38 | 2.78 | 4.48 | 8.28 | -4.22 | 9.28
15 | CO[C@H]1CC[C@H](N2C(=O)CNc3ncc(-c4ccc(C(C)(C)O)nc4)nc32)CC1 [CC-223] (top concentration 10000 nM) | 5.52 | 4.42 | 1.42 | 3.12 | 6.12 | 0.22 | -0.28 | 1.32 | 1.32 | 0.62 | -1.38 | 8.12 | 0.62 | 6.32 | 2.22 | 1.92 | -0.48 | 4.22 | 0.42 | 1.52
16 | CC#CC(=O)N1CC[C@@H](n2c(=O)n(-c3ccc(Oc4ccccc4)cc3)c3c(N)ncnc32)C1 [Tirabrutinib] (top concentration 1000 nM) | 3.7 | 0 | 0 | 0 | 1 | 0 | 0 | 0 | 2.3 | 0 | 0 | 4.1 | 0 | 6.5 | 2.5 | 1.8 | 0 | 0 | 0.7 | 1.5
17 | COc1ccc(CCc2nc3cc(-c4c(C)noc4C)ccc3n2C[C@H](C)N2CCOCC2)cc1Cl [SGC-CBP30] (top concentration 25000 nM) | -0.62 | 4.28 | 0.08 | 1.88 | -2.62 | 4.38 | 1.88 | 2.78 | 2.88 | 4.58 | 4.78 | 6.18 | 5.08 | 3.98 | 4.98 | 0.28 | 1.88 | -0.02 | 7.48 | 1.68
18 | CC(=O)Nc1ccc(C(=O)Nc2ccccc2N)cc1 [Tacedinaline] (top concentration 1000 nM) | -0.02 | 2.08 | -0.02 | 2.58 | 10.6 | -0.02 | -0.02 | -0.02 | -0.02 | -0.02 | 0.98 | 15.5 | 1.58 | 9.18 | 2.08 | -0.02 | 0.08 | -0.02 | 1.18 | 9.18
